Test results as given in PubChem BioAssay AID1963971 (Molecular Pharmacology Branch, DTP, NCI, 2024).
pIC50: −log10 of the molar value.

System: 953936-095-R-J2-PDC spheroids with HUVEC/MSC, viability
Assay: Anticancer human tumor 953936-095-R-J2-PDC patient-derived cervical squamous cell carcinoma cell line growth inhibition [PI3K]
Conditions: for pIC50: curve of first compound; for viability, T/C: stronger effect = lower value
From the text: Combinatorial screen of targeted agents with the PI3K inhibitors inavolisib, alpelisib, duvelisib, and copanlisib in multi-cell type tumor spheroids
A high-throughput screen of multi-cell type tumor spheroids was designed to identify active combinations of targeted small molecules and PI3K pathway inhibitors. Complex spheroids include a stromal component modeled by human endothelial cells (HUVEC) and fibroblasts modeled by human mesenchymal stem cells (MSCs). The concentration ranges selected for each drug and investigational agent were based upon clinically achievable concentrations if the clinical Cmax of the agent was known.
Compounds. The drugs and investigational agents: inavolisib (NSC800729), alpelisib (NSC765974), duvelisib (NSC772469), copanlisib (NSC816437), ipatasertib (NSC767898), afuresertib (NSC778305), talazoparib (NSC767125), sapanisertib (NSC764658), selumetinib (NSC741078), tovorafenib (DAY101, NSC766906), vemurafenib (NSC761431), ravoxertinib (NSC781343), sotorasib (NSC818433), MRTX1133 (NSC 836407), abemaciclib (NSC 768073), palbociclib (NSC758247), venetoclax (NSC 766270), SY5609 (NSC837396), enzalutamide (NSC755605), and darolutamide (NSC825331), were obtained from the National Cancer Institute (NCI) Developmental Therapeutics Program Chemical Repository. The FDA-approved anticancer drug set is available from the NCI Developmental Therapeutics Program. […] The stock solutions were prepared in dimethyl sulfoxide (DMSO, Sigma-Aldrich, St. Louis, MO, cat. D2650) at 800-fold the tested concentration and stored at -70 degrees C prior to their use. All drugs and investigational agents were tested over a range starting from a high concentration at or near the clinical Cmax and decreasing in half-log increments. If the clinical Cmax for an agent had not been determined, the highest concentration tested was 10 microM.
Cell Culture. All cells were maintained in an incubator at 37 degrees C and 5% CO2 with 95% humidity. The PDC lines were cultured according to standard operating procedures established by the NCI PDMR (https://pdmr.cancer.gov/sops/default.htm). All PDCs were thawed and cultured in Matrigel-coated flasks prepared with a working solution of 1X Ham's F-12 nutrient mix, without supplementation (Invitrogen, Waltham, MA, cat. 11765054), 100 U/mL penicillin-streptomycin (Invitrogen, cat. 15140122), and 2.5% Matrigel (Corning Inc., Corning, NY, cat. 354248) for the first three passages. The 354836-022-R-J1-PDC, 475296-252-R-J1-PDC, and 997726-040-R-J2-PDC lines were cultured in 6A media, which includes advanced DMEM/F-12 (Thermo Fisher Scientific, cat. 12634028), 10 mM HEPES (Thermo Fisher Scientific, cat. 15630080), 1X GlutaMAX supplement (Thermo Fisher Scientific, cat. 35050061), 0.1 mg/mL primocin (InvivoGen, San Diego, CA, cat. ant-pm-2), 10% defined fetal bovine serum, heat inactivated (HyClone Laboratories Inc., Logan, UT, cat. SH30070.03HI), 50% L-WRN conditioned media (ATCC, cat. CRL-3276), 1.25 mM N-Acetyl-L-cysteine (Sigma-Aldrich, cat. A9165), 10 mM nicotinamide (Sigma-Aldrich, cat. N0636), 1X B-27 supplement (Thermo Fisher Scientific, cat. 17504044), 1X N-2 supplement (Thermo Fisher Scientific, cat. 17502048), and 10 microM Y-27632 dihydrochloride (Tocris Bioscience, Bristol, United Kingdom, cat. 1254). The 624824-186-R-J2-PDC line was cultured in 6C/Colon 1B media, which includes all 6A media components plus 50 ng/mL human EGF recombinant protein (Thermo Fisher Scientific, cat. PHG0311). […]
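Note: spheroids exposed to compounds for seven days before read-out.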

## Cn1nccc1Nc1nccc(-c2ccn(C(CO)c3ccc(Cl)c(F)c3)c(=O)c2)n1 (configuration not stated) + CC(Nc1ccc2c(c1)OCCn1cc(N3C(=O)OCC3C(F)F)nc1-2)C(N)=O
Second compound 0.00316 µM
  pIC50: < 5.00
Second compound 0.01 µM
  pIC50: < 5.00
Second compound 0.0316 µM
  pIC50: < 5.00
Second compound 0.1 µM
  pIC50: 6.42
Second compound 0.316 µM
  pIC50: > 7.50
Second compound 1 µM
  pIC50: > 7.50
Second compound 0.00316 µM, first compound 0.0316 µM
  viability, T/C: 86.2%
Second compound 0.00316 µM, first compound 0.1 µM
  viability, T/C: 87%
Second compound 0.00316 µM, first compound 0.316 µM
  viability, T/C: 93.8%
Second compound 0.00316 µM, first compound 1 µM
  viability, T/C: 95.1%
Second compound 0.00316 µM, first compound 3.16 µM
  viability, T/C: 80.4%
Second compound 0.00316 µM, first compound 10 µM
  viability, T/C: 71.7%
Second compound 0.01 µM, first compound 0.0316 µM
  viability, T/C: 84.4%
Second compound 0.01 µM, first compound 0.1 µM
  viability, T/C: 94%
Second compound 0.01 µM, first compound 0.316 µM
  viability, T/C: 88.8%
Second compound 0.01 µM, first compound 1 µM
  viability, T/C: 77.1%
Second compound 0.01 µM, first compound 3.16 µM
  viability, T/C: 78.8%
Second compound 0.01 µM, first compound 10 µM
  viability, T/C: 70%
Second compound 0.0316 µM, first compound 0.0316 µM
  viability, T/C: 75.2%
Second compound 0.0316 µM, first compound 0.1 µM
  viability, T/C: 68.8%
Second compound 0.0316 µM, first compound 0.316 µM
  viability, T/C: 70.1%
Second compound 0.0316 µM, first compound 1 µM
  viability, T/C: 72%
Second compound 0.0316 µM, first compound 3.16 µM
  viability, T/C: 65.1%
Second compound 0.0316 µM, first compound 10 µM
  viability, T/C: 61.9%
Second compound 0.1 µM, first compound 0.0316 µM
  viability, T/C: 62.1%
Second compound 0.1 µM, first compound 0.1 µM
  viability, T/C: 52.7%
Second compound 0.1 µM, first compound 0.316 µM
  viability, T/C: 51.3%
Second compound 0.1 µM, first compound 1 µM
  viability, T/C: 46.5%
Second compound 0.1 µM, first compound 3.16 µM
  viability, T/C: 47.8%
Second compound 0.1 µM, first compound 10 µM
  viability, T/C: 40.1%
Second compound 0.316 µM, first compound 0.0316 µM
  viability, T/C: 36.3%
Second compound 0.316 µM, first compound 0.1 µM
  viability, T/C: 32.8%
Second compound 0.316 µM, first compound 0.316 µM
  viability, T/C: 31%
Second compound 0.316 µM, first compound 1 µM
  viability, T/C: 28.4%
Second compound 0.316 µM, first compound 3.16 µM
  viability, T/C: 24%
Second compound 0.316 µM, first compound 10 µM
  viability, T/C: 19.5%
Second compound 1 µM, first compound 0.0316 µM
  viability, T/C: 21.9%
Second compound 1 µM, first compound 0.1 µM
  viability, T/C: 20.9%
Second compound 1 µM, first compound 0.316 µM
  viability, T/C: 18%
Second compound 1 µM, first compound 1 µM
  viability, T/C: 15.1%
Second compound 1 µM, first compound 3.16 µM
  viability, T/C: 12.6%
Second compound 1 µM, first compound 10 µM
  viability, T/C: 8.88%
